From patent US5438052A, “Cephalosporin derivatives” (Hoffmann-La Roche Inc., priority 1991, dated 1995)
≈ marks a conversion by molar mass, not a printed value. Read-outs that look alike come from different tables or passages of the source.

Columns and labels:
E. coli 25922 [1] = assay: Experimental systemic septicaemia in the mouse; format: in vivo; settings: 96 h
Method in brief: (§1)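 ED50 in mg/kg s.c. is the Probit-derived dose protecting half the mice, judged on survival 4 days after i.p. challenge (about 5-100× 48 h LD50) in 16-20 g albino mice, 5 per group. Dosing was s.c. in 2% Tween 80 at 1 and 3 h, plus 5 h for P. aeruginosa.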

S. aureus Schoch = assay: Experimental systemic septicaemia in the mouse; format: in vivo; settings: Staphylococcus aureus, sc, 96 h
Method in brief: as §1

[2] = system: Pseudomonas aeruginosa BA; assay: Experimental systemic septicaemia in the mouse; format: in vivo; settings: sc, 96 h
Method in brief: as §1

K. oxytoca 1082 = assay: Minimum inhibitory concentration in vitro, agar dilution method; format: cell-based; settings: Klebsiella oxytoca
Excerpt: (§2) 1. Minimum Inhibitory Concentration in vitro
(§3) The activities ascertained, minimum inhibitory concentration (MIC) in μg/ml, are compiled in Table 1 hereinafter: […]

P. aeruginosa 799/WT = assay: as above; format: cell-based; settings: Pseudomonas aeruginosa
Excerpt: as §2, §3

E. cloacae P99 = assay: as above; format: cell-based; settings: Enterobacter cloacae
Excerpt: as §2, §3

P. aeruginosa BA = assay: as above; format: cell-based; settings: Pseudomonas aeruginosa
Excerpt: as §2, §3

S. aureus 6538 = assay: as above; format: cell-based; settings: Staphylococcus aureus
Excerpt: as §2, §3

E. coli 25922 [3] = assay: as above; format: cell-based; settings: Escherichia coli
Excerpt: as §2, §3

S. pneumoniae BA = assay: as above; format: cell-based; settings: Streptococcus pneumoniae; S. pneumoniae BA, agar dilution; read-out: MIC
Excerpt: as §2, §3

S. pyogenes 15 = assay: as above; format: cell-based; settings: Streptococcus pyogenes
Excerpt: as §2, §3

P. aeruginosa 27853 = assay: as above; format: cell-based; settings: Pseudomonas aeruginosa
Excerpt: as §2, §3

E. cloacae 908SSi = assay: as above; format: cell-based; settings: Enterobacter cloacae
Excerpt: as §2, §3

P. aeruginosa MK1184 = assay: as above; format: cell-based; settings: Pseudomonas aeruginosa
Excerpt: as §2, §3

K. pneumoniae 418 = assay: as above; format: cell-based; settings: Klebsiella pneumoniae
Excerpt: as §2, §3

P. mirabilis 2117 = assay: as above; format: cell-based; settings: Proteus mirabilis
Excerpt: as §2, §3

E. cloacae 908R = assay: as above; format: cell-based; settings: Enterobacter cloacae
Excerpt: as §2, §3

S. marcescens 69438 = assay: as above; format: cell-based; settings: Serratia marcescens
Excerpt: as §2, §3

P. vulgaris 1028 = assay: as above; format: cell-based; settings: Proteus vulgaris
Excerpt: as §2, §3

C. freundii 902 = assay: as above; format: cell-based; settings: Citrobacter freundii
Excerpt: as §2, §3

P. aeruginosa 799/61 = assay: as above; format: cell-based; settings: Pseudomonas aeruginosa
Excerpt: as §2, §3

E. aerogenes CF153 = assay: as above; format: cell-based; settings: Klebsiella aerogenes, CF153
Excerpt: as §2, §3

| SMILES | MIC (E. cloacae P99) | ED50 (E. coli 25922 [1]; Escherichia coli, 25922, sc) | ED50 (S. aureus Schoch) | ED50 [2] | MIC (K. oxytoca 1082; 1082) | MIC (P. aeruginosa 799/WT; 799/WT) | MIC (P. aeruginosa BA) | MIC (S. aureus 6538; 6538) | MIC (E. coli 25922 [3]; 25922) | MIC (S. pyogenes 15; 15) | MIC (P. aeruginosa 27853; 27853) | MIC (E. cloacae 908SSi; 908SSI) | MIC (P. aeruginosa MK1184; MK1184) | MIC (E. aerogenes CF153) | MIC (K. pneumoniae 418; 418) | MIC (P. mirabilis 2117; 2117) | MIC (E. cloacae 908R; 908R) | MIC (S. marcescens 69438; 69438) | MIC (P. vulgaris 1028; 1028) | MIC (C. freundii 902; 902) | further results |
| --- | --- | --- | --- | --- | --- | --- | --- | --- | --- | --- | --- | --- | --- | --- | --- | --- | --- | --- | --- | --- | --- |
| Cc1cc(SCC2=C(C(=O)O)N3C(=O)[C@@H](NC(=O)/C(=N\OC(C)(C)C(=O)NNC(=O)c4ccc(O)c(O)c4)c4csc(N)n4)[C@H]3SC2)n2nc(COC(=O)c3ccc(O)c(O)c3)nc2n1 [Example 43] | 0.12 mg/L (≈ 0.126 µM) | – | – | – | – | – | – | – | – | – | – | – | – | – | – | – | – | – | – | – | ED50 (E. coli 25922 [1]; Escherichia coli, sc, E. coli 25922, albino mice, s.c. 1 and 3 hours after infection, survival after 4 days, read-out: ED50): 0.05 mg/kg; ED50 (S. aureus Schoch; S. aureus Schoch, albino mice, s.c. 1 and 3 hours after infection, survival after 4 days, read-out: ED50): 12 mg/kg; ED50 ([2]; P. aeruginosa BA, albino mice, s.c. 1, 3 and 5 hours after infection, survival after 4 days, read-out: ED50): 0.019 mg/kg; MIC (K. oxytoca 1082; K. oxytoca 1082, agar dilution, read-out: MIC): < 0.1 mg/L; MIC (P. aeruginosa 799/WT; P. aeruginosa 799/WT, agar dilution, read-out: MIC): < 0.1 mg/L; MIC (P. aeruginosa BA; P. aeruginosa BA, agar dilution, read-out: MIC): < 0.1 mg/L; MIC (S. aureus 6538; S. aureus 6538, agar dilution, read-out: MIC): 16 mg/L (≈ 16.8 µM); MIC (E. coli 25922 [3]; E. coli 25922, agar dilution, read-out: MIC): < 0.1 mg/L; MIC (S. pneumoniae BA): 4 mg/L (≈ 4.21 µM); MIC (S. pyogenes 15; S. pyogenes 15, agar dilution, read-out: MIC): 8 mg/L (≈ 8.42 µM); MIC (P. aeruginosa 27853; P. aeruginosa 27853, agar dilution, read-out: MIC): 0.25 mg/L (≈ 0.263 µM); MIC (E. cloacae 908SSi; E. cloacae 908SSi, agar dilution, read-out: MIC): 2 mg/L (≈ 2.11 µM); MIC (P. aeruginosa MK1184; P. aeruginosa MK1184, agar dilution, read-out: MIC): < 0.1 mg/L; MIC (K. pneumoniae 418; K. pneumoniae 418, agar dilution, read-out: MIC): < 0.1 mg/L; MIC (P. mirabilis 2117; P. mirabilis 2117, agar dilution, read-out: MIC): 0.12 mg/L (≈ 0.126 µM); MIC (E. cloacae 908R; E. cloacae 908R, agar dilution, read-out: MIC): 0.12 mg/L (≈ 0.126 µM); MIC (S. marcescens 69438; S. marcescens 69438, agar dilution, read-out: MIC): 0.12 mg/L (≈ 0.126 µM); MIC (P. vulgaris 1028; P. vulgaris 1028, agar dilution, read-out: MIC): 0.12 mg/L (≈ 0.126 µM); MIC (C. freundii 902; C. freundii 902, agar dilution, read-out: MIC): < 0.1 mg/L; MIC (P. aeruginosa 799/61; P. aeruginosa 799/61, agar dilution, read-out: MIC): < 0.1 mg/L |
| Cc1cc(SCC2=C(C(=O)[O-])N3C(=O)[C@@H](NC(=O)/C(=N\OCc4ccc(O)c(O)c4F)c4csc(N)n4)[C@H]3SC2)n2nc(CS(=O)(=O)c3ccc(O)c(O)c3)nc2n1.[Na+] [Example 12, (6R,7R)-7-[(Z)-2-(2-amino-4-thiazolyl)-2-[[(2-fluoro-3,4-dihydroxybenzyl)oxy]imino]acetamido]-3-[[[2-[[(3,4-dihydroxyphenyl)sulphonyl]methyl]-5-methyl-s-triazolo[1,5-a]pyrimidin-7-yl]thio]methyl]-8-oxo-5-thia-1-azabicyclo[4.2.0]oct-2-ene-2-carboxylic acid sodium salt (1:1)] | 8 mg/L | < 0.05 mg/kg | 6.2 mg/kg | 0.028 mg/kg | 0.5 mg/L | < 0.1 mg/L | < 0.1 mg/L | 16 mg/L | < 0.1 mg/L | 2 mg/L | < 0.1 mg/L | 4 mg/L | < 0.1 mg/L | 4 mg/L | < 0.1 mg/L | 0.12 mg/L | 2 mg/L | < 0.1 mg/L | 0.25 mg/L | < 0.1 mg/L | MIC (P. aeruginosa 799/61; 799/61): < 0.1 mg/L |
| Cc1cc(SCC2=C(C(=O)[O-])N3C(=O)[C@@H](NC(=O)/C(=N\OCc4ccc(O)c(O)c4)c4csc(N)n4)[C@H]3SC2)n2nc(CS(=O)(=O)c3ccc(O)c(O)c3)nc2n1.[Na+] [Example 11, (6R,7R)-7-[(Z)-2-(2-amino-4-thiazolyl)-2-[[(3,4-dihydroxybenzyl)oxy]imino]acetamido]-3-[[[2-[[(3,4-dihydroxyphenyl)sulphonyl]methyl]-5-methyl-s-triazolo[1,5-a]pyrimidin-7-yl]thio]methyl]-8-oxo-5-thia-1-azabicyclo[4.2.0]oct-2-ene-2-carboxylic acid sodium salt (1:1)] | 16 mg/L | < 0.05 mg/kg | 3.5 mg/kg | 0.035 mg/kg | < 0.1 mg/L | 0.12 mg/L | 0.12 mg/L | 8 mg/L | < 0.1 mg/L | 2 mg/L | < 0.1 mg/L | 4 mg/L | < 0.1 mg/L | 1 mg/L | < 0.1 mg/L | 0.12 mg/L | 2 mg/L | 0.25 mg/L | 0.25 mg/L | 0.12 mg/L | MIC (P. aeruginosa 799/61; 799/61): < 0.1 mg/L |
